Results reported in patent US20110135755A1, “Combination therapies for treating neoplastic disease” (priority 2009, published 2011).
“Also recorded” adds a separate entry of the source.

How the values were obtained:
[1] = Element concentrations in kidney samples of treated rats; format: in vivo; settings: rat kidney; cisplatin single iv 6.5 mg/kg; CV247 oral 3 ml/kg bd, fourteen days
From the text: Liver and kidney samples were subsequently examined to see if CV 247 protected the rats from the accumulation of platinum and platinum free radicals, and what kind of metal ion concentration changes occur after treatment.

[2] = tested on: HCT 8 and T47D cell lines; experiment: MTT, SRB and CVE assays with exposure of up to 10 days; format: cell-based; settings: 18000 and 26000 cells/well
From the text: Graphs depicting the results obtained are shown in FIGS. 6 to 11 (it should be noted that some graphs have the x axis displaying cancer cell kill, whilst others display cancer cell viability).

With `N.N.[Cl][Pt][Cl]` [Cisplatin, cis-diamminedichloroplatinum] the Pt [1] was 3.048 ± 0.583, the “effect on cancer cell kill / viability at cisplatin dose of 1 mg” value ([2]; cisplatin 1 mg alone or with CV247) was “only a marginal long term benefit; also recorded: effect after 4 days was often reduced” and the “effect on cancer cell kill / viability” value ([2]; high doses of cisplatin, CV247 alone) was “cytotoxic”.
